# In patent US8883192B2, “Compositions and methods for reducing or preventing obesity” (Nestec S.A., priority 2004, dated 2014):
# Assays:
# [1] = test system: estrogen receptor (ER); conditions: compared with other isoflavones; cited from earlier work
# [2] = Metabolic profile of isoflavones and their metabolites in blood of dogs; format: in vivo, dog; conditions: blood of dogs tested; FIG. 8B
# Description: The following measurements were made for each animal: • Body weight, body condition score, DEXA. • Plasma concentrations of isoflavones and their metabolites • Blood leptin • Intravenous glucose tolerance test • Oxidative stress measurement (isoprostanes: 8-iso-prostaglandin F2α, formed from arachidonic acid in phospholipids by free radical reaction): 3-month samples
# The metabolic profiles of isoflavones and their metabolites in the blood of humans (FIG. 8A) and dogs (FIG. 8B) were compared.
# [3] = cited from earlier work
# [4] = test system: rats after surgically-induced menopause; conditions: cited from earlier work
# [5] = test system: topoisomerase II; conditions: cited from earlier work
# [6] = test system: tyrosine protein kinase; conditions: cited from earlier work
# [7] = test system: angiogenesis; conditions: cited from earlier work
# [8] = test system: rat adipocytes; conditions: cited from earlier work
structure (smiles),measurement,setting,value
Oc1ccc([C@H]2COc3cc(O)ccc3C2)cc1 [Equol],induction of estrogen receptor (ER)-responsive transcription (estrogenic activity),[1],more strongly than any other isoflavones
same,form of isoflavone metabolite in the blood,[2],predominant form of isoflavone metabolite
same,antioxidant activity,"[3]; compared with all the isoflavones tested, Setchell 2002",greatest antioxidant activity of all the isoflavones tested
COc1cc2c(=O)c(-c3ccc(O)cc3)coc2cc1O [glycitein],body fat accumulation,[4],suppressing body fat accumulation
O=C1c2ccc(O)cc2OCC1c1ccc(O)cc1 (stereo not shown) [dihydrodaidzein],free radical scavenging activities,[3]; Jiang 2003,appears to have free radical scavenging activities
O=c1c(-c2ccc(O)cc2)coc2cc(O)cc(O)c12 [genistein],inhibition of topoisomerase II,[5],inhibitor
same,inhibition of tyrosine protein kinase,[6],inhibits
same,inhibition of angiogenesis,[7],inhibits angiogenesis
same,basal and epinephrine-stimulated lipolysis,[8],enhanced
same,basal and insulin-stimulated lipogenesis,[8],inhibited
"O=c1c(-c2ccc(O)cc2)coc2cc(O)ccc12 [Daidzein, daidzein]",body fat accumulation,[4],suppressing body fat accumulation
same,basal and epinephrine-stimulated lipolysis,[8],enhanced
same,basal and insulin-stimulated lipogenesis,[8],inhibited
